Residue numbers refer to the chain shown, from its start. Names may count otherwise. Read-outs that look alike come from different tables or passages of the source.
What was measured:
mSGLT1 [1] = conditions: 5 mM tripeptide, 30 min, 37° C., 5 mM D-glucose
Protocol: (§1) Standardised t areas of human small intestinal mucosa (FIGS. 13,19) or 1 cm segments of everted mouse small intestine (FIGS. 14,15,20) were washed three times at 37° C. with Krebs-Ringer buffer containing 5 mM D-glucose and incubated for 30 min at 37° C. in Krebs-Ringer buffer containing 5 mM D-glucose plus different concentrations of tripeptides. Thereafter the tissue was washed three times at 0° C. in Krebs-Ringer buffer without glucose and uptake measurements were performed.
(§2) For measurement of SGLT1 mediated glucose uptake, the everted segments of mouse small intestine or defined areas of human mucosa were incubated for 2 min at 37° C. with Krebs-Ringer buffer containing 10 μM [^14C]AMG with or without 0.2 mM phlorizin. Uptake was stopped by transferring the segments into ice cold Krebs-Ringer buffer containing 0.2 mM phlorizin for 5 min. After washing with ice cold Krebs-Ringer buffer the intestinal segments or pieces of human mucosa were dissolved in 0.5 ml Soluence-350) (Perkin Elmer Inc. Waltham Mass., USA). Radioactivity was analysed by liquid scintillation counting. Phlorizin inhibited AMG uptake per cm length or per standard area of the mucosa was calculated.
Thereafter the segments were washed with PBS buffer and phlorizin inhibited uptake of 10 μM [^14C]AMG was measured.

hCNT1 = assay: hCNT1-mediated uridine uptake in Xenopus laevis oocytes after injection of peptides; assay type: cell-based, human; conditions: no AMG injected; for uptake of 5 μM [3H]uridine expressed by hCNT1: low intracellular glucose
Protocol: (§3) Selected oocytes were injected with 50 nl of water containing cRNAs (2.5 ng of hSGLT1 or 0.5 ng of hCNT1). For expression oocytes were incubated for 2-3 days at 16° C. in modified Barth's solution with gentamycin. Noninjected control oocytes were incubated in parallel.
(§4) Before uptake measurements were started, 50 nl of K-Ori buffer containing peptides, polypeptides, 1 pM of calmodulin stimulated kinase 2 (CK2) inhibitor KN93 (Calbiochem San Diego. Calif.), 3 mM of the omithinedecarboxlase inhibitor difluoromethylornithine DFMO and/or or 100 pmol α-methyl-α-D-glucopyranoside (AMG) were injected and the oocytes were incubated for 1 h at room temperature. Uptake was measured in Ori buffer at room temperature. Measurements in transporter expressing oocytes were corrected for measurements in noninjected oocytes. Uptake of 50 μM [^14C]AMG was measured after 15 min incubation and washing in ice-cold Ori buffer containing 1 mM phlorizin. Uptake of 5 μM [^3H]uridine was measured after 15 min incubation and washing in ice-cold Ori buffer. Oocytes were solubilized in 5% (w/v) SDS and analyzed for radioactivity by scintillation counting.
(§5) For comparison of mean values from 2 groups the Student's t-test for unpaired samples was employed.

hSGLT1 [2] = conditions: cited from earlier work
mSGLT1 [3] = conditions: RS1−/− mice starved over night; gavage 20 μmol per mouse; after 2 h
Protocol: as §2
After 2 h the animals were killed, their small intestines were everted and phlorizin inhibited uptake of 10 μM [^14C]AMG Into segments of the everted jejunum was measured (FIG. 12A).

hCNT3 = assay: hCNT3-mediated uridine uptake in Xenopus laevis oocytes after injection of peptides; assay type: cell-based, human; conditions: low intracellular glucose, no AMG injected
Protocol: FIG. 9. […] Posttransciptional downregulation of hCNT1 and hCNT3 was measured without injection of AMG. […] One hour later uptake of 5 μM [^3H]uridine was measured.
as §4

hSGLT1 [4] = assay: hSGLT1-mediated AMG uptake in Xenopus laevis oocytes 1 h after injection of peptides; assay type: cell-based, human; conditions: for down-regulation of hSGLT1: without injection of AMG (<10 μM); for affinity for down-regulation of hSGLT1 compared with hRS1-Reg wildtype: low intracellular glucose; for effect of intracellular AMG on the affinity for down-regulation of hSGLT1: without versus with injection of AMG
Protocol: as §3, §4, §5

hSGLT1 [5] = conditions: 5 mM D-glucose, 30 min
Protocol: Jejunal segments which were routinely dissected during bariatric operations of highly obese patients were stored for 1-3 h on ice in Dulbecco's modified Eagle's medium containing 5 mM D-glucose. The mucosa was isolated and circular areas of the mucosa were dissected using a punching instrument.
as §1, §2
Next, it was investigated which of the QXP-type tripeptides are capable to downregulate hSGLT1 expression in human small intestine in the presence of high glucose. Jejunal samples that were obtained during bariatric surgery of obese patients (males and females with a mean age of 50 years with a mean body mass index of 50) were used. […] A part of the jejumum which is routinely removed during bariatric surgery, was carried to the laboratory using ice-cold culture medium containing 6 mM D-glucose. Part of the mucosa was dissected and identical areas of the mucosa were isolated using a punching instrument. The mucosal pieces were washed with glucose free buffer and incubated for 30 min at 37° C. in tissue culture medium (pH 6.4) containing 5 mM D-glucose and different QXP-type tripeptides. Thereafter the sample were washed two times with PBS buffer (pH 7.4, 37° C.) and incubated for 2 min at 37° C. in PBS (pH 7.4) containing 100 mM sodium and 10 μM [^14C]AMG. The incubation was performed in the absence and presence of 200 μM of the SGLT1 inhibitor phlorizin. Thereafter the samples were washed with ice-cold PBS, the tissue was dissolved, and radioactivity was determined by liquid scintillation counting. The phorizin inhibited AMG uptake was calculated.

mSGLT1 [6] = assay: Phlorizin inhibited AMG uptake into everted small intestine after gavage of mice with mRS1-Reg coupled to hydrogel nanoparticles; assay type: in vivo, mouse; conditions: gavage 1 nmol coupled to nanoparticles, 2 h
Protocol: Inversed miniemulsions were prepared from 2.5 ml hexane containing 50.3 mg Span 80 (Sigma, Taufkirchen, Germany) and 16.7 mg TWEEN 80™ (Sigma) and 0.4 ml 20 mM Hepes pH 7.4 containing 100 mg of thiol-functionalized linear poly(glycidol) polymer (Groll (2009) Journal of Polymer Science 47,5543-5549), 0.5 mg […] (TAT-peptide, Peptides International, Louisville, Ky., USA), and 0.28 mg cysteine-terminated RS1-Reg peptide. In control nanohydrogels the RS1-Reg peptide was omitted. The nanogels were prepared as described (Groll (2009) Journal of Polymer Science 47,5543-5549). Shortly, the organic and aqueous phase were combined, stirred, and a miniemulsion was prepared by ultrasonication at 0° C. For formation of disulphide bridges 60 μL of 0.1 M H2O2 in water were added. The mixture was sonicated for 60 s and incubated for 25 min at room temperature. Oxidation was quenched by acidification and the nanogels were separated by centrifugation. The aqueous layer containing the nanogels was separated and washed four times with a tetrahydrofuran/water (20%/80%)-mixture to remove the surfactants and unreacted polymer. Remaining organic solvents and acid were removed by dialysis against water. The nanohydrogel suspension was stored up to two weeks stored at 4° C.
Male Rs1−/− mice or wildtype mice (Osswald (2005) Mol Cell Biol. 25, 78-87) kept on standard diet were starved over night and gavaged with 200 μl water (adjusted with HCl to pH 5.5) containing 10 mg nanohydrohydrogel that was loaded with 45 μg mRS1-Reg mutant. As a control unloaded nanohydrogel was used. […] The jejunum was cut into 1 cm long segments.
Radioactivity was analysed by liquid scintillation counting.
RS1−/− mice starved overnight were gavaged with 200 μl empty NPs (control) or 200 μl NPs loaded with 1 nmol mRS1-Reg(S19A) or 1 nmol mRS1-Reg(S19E). […] 2 h after gavage with mRS1-Reg mutants coupled to NPs, phlorizin (200 μM) Inhibited uptake of 10 μM AMG labelled containing tracer [^14C]AMG after 2 min incubation at 37° C. (FIG. 21A, C) or uptake of 1 mM AMG labelled with tracer [^14C]AMG after 2 min incubation at 37° C. was measured (FIG. 21B, D). […] Since AMG is rapidly transported by mSGLT1 into the enterocytes the intracellular concentration increases within seconds to values higher than 0.25 mM when the cells were incubated with 1 mM AMG. […] In contrast phlorizin-inhibited uptake of 10 μM AMG or 1 mM AMG was inhibited by 26 and 30% respectively. […] The data further indicate that gavage of a mouse with 1 nmol mRS1-Reg(S19E) is sufficient to downregulate SGLT1 in the presence of low and high intracelluar glucose.

[7] = 5 pM, intracellular AMG ~0.25 mM

glutamine-serine-proline [QSP, reference compound]
decrease of SGLT1 mediated uptake of 10 μM [14C]AMG (mSGLT1 [1]; wildtype mice): no significant effect
uptake of 5 μM [3H]uridine expressed by hCNT1 (hCNT1): not able to inhibit
inhibition of hSGLT1 expression in oocytes (hSGLT1 [2]; 200 nM QSP, intracellular AMG <10 μM): 40-50%
inhibition of hSGLT1 expression in oocytes after injection of AMG (hSGLT1 [2]; 200 nM QSP, intracellular AMG higher than 250 μM): abolished
down-regulation of hSGLT1 at raised intracellular AMG (hSGLT1 [2]; intracellular AMG higher than 0.1 mM): blunted
decrease of phlorizin inhibited uptake of 10 μM [14C]AMG into everted jejunum (mSGLT1 [3]): no significant effect
uptake of 5 μM [3H]uridine expressed by hCNT3 (hCNT3): not able to inhibit
inhibition of SGLT1 mediated transport (hSGLT1 [4]; 50 nM tripeptide, no AMG injected): inhibition
effect on hSGLT1 expression (hSGLT1 [4]; 250 μM intracellular AMG): abolished
IC50 (hSGLT1 [4]; without injection of AMG (intracellular AMG <10 μM), read-out: IC50 for down-regulation of hSGLT1-mediated AMG uptake): 0.2 nM

SDSDRIEP [octapeptide corresponding to a particular motif of human RS1, reference compound]
uptake of 5 μM [3H]uridine expressed by hCNT1 (hCNT1): decreased
uptake of 5 μM [3H]uridine expressed by hCNT3 (hCNT3): decreased

glutamine-serinethiophosphate-proline [QSthiophosphateP]
decrease of SGLT1 mediated uptake of 10 μM [14C]AMG (mSGLT1 [1]; RS1−/− mice): significantly inhibited
decrease of SGLT1 mediated uptake of 10 μM [14C]AMG (mSGLT1 [1]; wildtype mice): significantly inhibited
down-regulation of hSGLT1 mediated AMG uptake (hSGLT1 [5]; 5 mM): ~30%
down-regulation of hSGLT1 mediated AMG uptake (hSGLT1 [5]; 15 mM): ~40%
degree of down-regulation of hSGLT1 (hSGLT1 [4]; [7]): ~75%
down-regulation of hSGLT1 expression (hSGLT1 [4]; [7]): down-regulated
down-regulation of hSGLT1 (hSGLT1 [4]; 5 pM): not
down-regulation of hSGLT1 expression (hSGLT1 [4]; 500 pM, intracellular AMG ~0.25 mM): down-regulated
down-regulation of hSGLT1 (hSGLT1 [4]; 500 pM): down-regulated

B1: hRS1-Reg(S45A): hRS1-Reg with serine 45 replaced by alanine to prevent phosphorylation (protein)
chain: SSGQSPDVGNPMSLARSVSASVCPIKPSDADRIEPKAVKALKASAEFQLNSEKKEHLSLQDLSDHASSADHAPTDQSPAMPMQ
modifications: left off: small tags and cut ends
notes: hRS1-Reg with serine 45 replaced by alanine to prevent phosphorylation
affinity for down-regulation of hSGLT1 compared with hRS1-Reg wildtype (hSGLT1 [4]; no AMG injected): similar
effect of intracellular AMG on the affinity for down-regulation of hSGLT1 (hSGLT1 [4]): abolished

B2: hRS1-Reg(S20E): hRS1-Reg, the first/N-terminal QSP motive is replaced by QEP (SEQ ID No. 9) (protein)
chain: B1 chain with S5E, A30S
modifications: hRS1-Reg(S20E)
affinity for down-regulation of hSGLT1 higher than hRS1-Reg wildtype (hSGLT1 [4]; high intracellular glucose (AMG ~250 μM)): 15 Mill
increase of affinity (decrease of IC50) for down-regulation of hSGLT1 at high versus low intracellular AMG (hSGLT1 [4]; intracellular AMG ~250 μM versus low): 300 fold

B3: hRS1-Reg(S20A): hRS1-Reg mutant preventing phosphorylation at serine in position 20 (protein)
chain: B1 chain with S5A, A30S
modifications: left off: small tags and cut ends
affinity for down-regulation of hSGLT1 compared with hRS1-Reg wildtype (hSGLT1 [4]; no AMG injected): does not alter the affinity

B4: hRS1-Reg(S45E): hRS1-Reg with serine 45 replaced by glutamate to mimick phosphorylation (protein)
chain: B1 chain with A30E
modifications: left off: small tags and cut ends
notes: hRS1-Reg with serine 45 replaced by glutamate to mimick phosphorylation
affinity for down-regulation of hCNT1 compared with hRS1-Reg wildtype (hCNT1): similar
effect of mimicking phosphorylation in position 45 on affinity for down-regulation of hCNT1 (hCNT1): decreases affinity
affinity for down-regulation of hSGLT1 compared with hRS1-Reg wildtype (hSGLT1 [4]; no AMG injected): increases affinity
effect of intracellular AMG on the affinity for down-regulation of hSGLT1 (hSGLT1 [4]): abolished

B5: mRS1-Reg(S19E): mRS1-Reg, first/N-terminal QSP motive replaced by QEP (SEQ ID No. 10), coupled to hydrogel nanoparticles for gavage (protein)
chain: PSGQEPEVGSPTSLARSVSASVCAIKPGDPNSIESLAMEATKASAEFQTNSKKTDPPPLQVLPDLASSAEQSLAMPFH
modifications: coupled to hydrogel nanoparticles; mRS1-Reg(S19E)
inhibition of phlorizin-inhibited uptake of 10 μM AMG (mSGLT1 [6]; RS1−/− mice): 26%
inhibition of phlorizin-inhibited uptake of 1 mM AMG (mSGLT1 [6]; RS1−/− mice): 30%
decrease of uptake of 1 mM AMG (high intracellular glucose) (mSGLT1 [6]; wild type mice): 40%
uptake of 10 μM AMG (low intracellular glucose) (mSGLT1 [6]; wild type mice): not altered

Source: patent US10105414B2, “Peptides derived from RS1 which down-regulate glucose absorption after a glucose rich meal and increase insulin sensitivity” (Julius-Maximilians-Universität Würzburg, priority 2014, dated 2018)
